For 17 compounds, EC50 results are on record in US9346809B2 (LEO PHARMA A/S, priority 2009, dated 2016).

Holding throughout (format): biochemical
The target of experiment [1] is T1, JAK2 (catalytic domain, His-tag) (Homo sapiens, UniProt O60674).
T1 construct: All four purified enzymes contain only the catalytic domain; His (N); purchased Carna Biosciences, Inc; host or cells: baculovirus expression system
As to the kind of experiment: JAK kinase assay (HTRF, phosphorylation of TK substrate-biotin), JAK2. As to conditions: ATP at Km (4 μM), read-out: JAK2 kinase inhibitory activity (EC50 indicator). An outline of the steps:
(§1)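 Compound was mixed with TK substrate-biotin (1 μM final), then kinase plus ATP at its Km was added and left 20-30 min at room temperature. Detection mix with EDTA, Streptavidin-XL665 and STK Ab Cryptate stopped the reaction; after overnight dark incubation, HTRF was read and EC50 derived.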
(TR-FRET usually uses a lanthanide donor and a delayed reading to cut background.)

For experiment [2], the target named is T2, JAK1 (aa 850-1154, catalytic domain, GST-tag) (Homo sapiens, UniProt P23458).
T2 construct: JAK1 (aa 850-1154) and TYK2 (aa 871-1187) are expressed with an N-terminally fused GST-tag; GST (N); purchased Carna Biosciences, Inc; host or cells: baculovirus expression system
Nature of the experiment: JAK kinase assay (HTRF, phosphorylation of TK substrate-biotin), JAK1. As to conditions: ATP at Km (7 μM), read-out: JAK1 kinase inhibitory activity (EC50 indicator). An outline of the steps:
as §1

In experiment [3] the target is T3, TYK2 (aa 871-1187, catalytic domain, GST-tag) (Homo sapiens, UniProt P29597).
T3 construct: JAK1 (aa 850-1154) and TYK2 (aa 871-1187) are expressed with an N-terminally fused GST-tag; GST (N); purchased Carna Biosciences, Inc; host or cells: baculovirus expression system
T3 sequence (P29597 871-1187): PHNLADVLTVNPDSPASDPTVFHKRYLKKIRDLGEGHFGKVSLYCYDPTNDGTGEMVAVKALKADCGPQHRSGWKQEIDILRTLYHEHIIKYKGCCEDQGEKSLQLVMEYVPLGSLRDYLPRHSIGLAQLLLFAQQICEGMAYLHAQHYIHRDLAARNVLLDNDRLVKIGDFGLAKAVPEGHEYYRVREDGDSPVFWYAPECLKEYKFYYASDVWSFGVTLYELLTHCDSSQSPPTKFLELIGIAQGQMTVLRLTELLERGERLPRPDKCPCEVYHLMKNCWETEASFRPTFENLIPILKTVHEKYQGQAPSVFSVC
As to the kind of experiment: JAK kinase assay (HTRF, phosphorylation of TK substrate-biotin), TYK2. As to conditions: ATP at Km (13 μM), read-out: TYK2 kinase inhibitory activity (EC50 indicator). An outline of the steps:
as §1

Experiment [4] concerns the target T4, JAK3 (catalytic domain, His-tag) (Homo sapiens, UniProt P52333).
T4 construct: All four purified enzymes contain only the catalytic domain; His (N); purchased Carna Biosciences, Inc; host or cells: baculovirus expression system
As to the kind of experiment: JAK kinase assay (HTRF, phosphorylation of TK substrate-biotin), JAK3. As to conditions: ATP at Km (2 μM), read-out: JAK3 kinase inhibitory activity (EC50 indicator). Summed up: as §1

Read-outs that look alike come from different tables or passages of the source.

As usually defined, the EC50 is the concentration giving half of the maximal effect.

T4 sequence (P52333 822-1111 limits assumed): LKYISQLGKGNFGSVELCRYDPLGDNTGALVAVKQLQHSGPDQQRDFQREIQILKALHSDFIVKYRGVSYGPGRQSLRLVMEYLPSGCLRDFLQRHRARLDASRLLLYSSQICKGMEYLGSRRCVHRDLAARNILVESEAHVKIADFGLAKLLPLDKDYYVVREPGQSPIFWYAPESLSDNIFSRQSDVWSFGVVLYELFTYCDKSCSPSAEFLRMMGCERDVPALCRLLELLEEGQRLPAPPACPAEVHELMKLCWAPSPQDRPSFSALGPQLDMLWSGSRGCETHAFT
T2 sequence (P23458 850-1154): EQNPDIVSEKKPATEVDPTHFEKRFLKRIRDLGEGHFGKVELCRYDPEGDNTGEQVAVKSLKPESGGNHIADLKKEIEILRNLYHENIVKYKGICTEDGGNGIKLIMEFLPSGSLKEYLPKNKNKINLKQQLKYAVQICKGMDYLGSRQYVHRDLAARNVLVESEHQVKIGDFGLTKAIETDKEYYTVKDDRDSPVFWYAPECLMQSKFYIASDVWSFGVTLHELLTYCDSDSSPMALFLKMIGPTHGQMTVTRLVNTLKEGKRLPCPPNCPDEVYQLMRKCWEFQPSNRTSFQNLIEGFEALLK
T1 sequence (O60674 849-1124 limits assumed): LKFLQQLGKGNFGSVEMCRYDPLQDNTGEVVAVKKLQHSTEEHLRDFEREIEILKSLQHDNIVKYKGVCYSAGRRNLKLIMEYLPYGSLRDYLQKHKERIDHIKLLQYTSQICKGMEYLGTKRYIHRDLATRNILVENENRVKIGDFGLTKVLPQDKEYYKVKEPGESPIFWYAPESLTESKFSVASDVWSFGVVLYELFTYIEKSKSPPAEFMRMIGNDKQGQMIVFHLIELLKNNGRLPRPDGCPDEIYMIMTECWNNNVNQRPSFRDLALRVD

With `COc1cc(S(N)(=O)=O)ccc1C(=O)N1[C@@H]2CC[C@H]1CN(c1ncnc3[nH]ccc13)C2` [Example 393, 3-Methoxy-4-[3-(7H-pyrrolo[2,3-d]pyrimidin-4-yl)-3,8-diaza-bicyclo[3.2.1]octane-8-carbonyl]-benzenesulfonamide], the EC50 was below 100 nM in experiment [1] (HTRF assay), below 100 nM in experiment [2] (HTRF assay), 100 to 500 nM in experiment [3] (HTRF assay) and below 100 nM in experiment [4] (HTRF assay).
In the case of `CC1CN(C(=O)c2cccc(C#N)c2)C2(CC2)CN1c1ncnc2[nH]ccc12` (centres unmarked) [Example 145, 3-[6-Methyl-7-(7H-pyrrolo[2,3-d]pyrimidin-4-yl)-4,7-diaza-spiro[2.5]octane-4-carbonyl]-benzonitrile], the EC50 in experiment [1] was below 100 nM; in experiment [2] it was below 100 nM; in experiment [3], 100 to 500 nM; in experiment [4], 100 to 500 nM.
Take `N#Cc1ccc(C(=O)N2C[C@@H]3C[C@H]2CN3c2ncnc3[nH]ccc23)cc1` [Example 258, 4-[5-(7H-Pyrrolo[2,3-d]pyrimidin-4-yl)-2,5-diaza-bicyclo[2.2.1]heptane-2-carbonyl]-benzonitrile]: the EC50 in experiment [1] (HTRF assay), in experiment [2] (HTRF assay), in experiment [3] (HTRF assay) and in experiment [4] (HTRF assay) was above 500 nM each time.
With `COCCOC(=O)N1[C@@H]2CC[C@H]1CN(c1ncnc3[nH]ccc13)C2` [Example 12, 3-(7H-Pyrrolo[2,3-d]pyrimidin-4-yl)-3,8-diazabicyclo[3.2.1]octane-8-carboxylic acid 2-methoxyethyl ester], the EC50 in experiment [1] is 100 to 500 nM; in experiment [2], 100 to 500 nM; in experiment [3], above 500 nM; in experiment [4] it was above 500 nM.
`CCc1sc(C(=O)N2CCN(c3ncnc4[nH]ccc34)CC23CC3)cc1Br` [Example 209, (4-Bromo-5-ethyl-thiophen-2-yl)-[7-(7H-pyrrolo[2,3-d]pyrimidin-4-yl)-4,7-diaza-spiro[2.5]oct-4-yl]-methanone]: the half-maximal effective concentration (EC50) in experiment [1] (HTRF assay) is below 100 nM; in experiment [2] (HTRF assay), below 100 nM; in experiment [3] (HTRF assay), below 100 nM; in experiment [4] (HTRF assay) it was 100 to 500 nM.
In the case of `COc1cc(C(=O)N2[C@@H]3CC[C@H]2CN(c2ncnc4[nH]ccc24)C3)ccc1S(N)(=O)=O` [Example 390, 2-Methoxy-4-[3-(7H-pyrrolo[2,3-d]pyrimidin-4-yl)-3,8-diaza-bicyclo[3.2.1]octane-8-carbonyl]-benzenesulfonamide], the EC50 in experiment [1] (HTRF assay), in experiment [2] (HTRF assay), in experiment [3] (HTRF assay) and in experiment [4] (HTRF assay) was below 100 nM each time.
As for `Cc1nccnc1C(=O)N1[C@@H]2CC[C@H]1CN(c1ncnc3[nH]ccc13)C2` [Example 72, (3-Methyl-pyrazin-2-yl)-[3-(7H-pyrrolo[2,3-d]pyrimidin-4-yl)-3,8-diaza-bicyclo[3.2.1]oct-8-yl]-methanone], the concentration giving a half-maximal response (EC50) is below 100 nM in experiment [1], 100 to 500 nM in experiment [2], above 500 nM in experiment [3] and 100 to 500 nM in experiment [4].
Consider `N#Cc1ccc(CC(=O)N2CCN(c3nc(N)nc4[nH]ccc34)CC23CC3)cc1` [Example 312, 4-{2-[7-(2-Amino-7H-pyrrolo[2,3-d]pyrimidin-4-yl)-4,7-diaza-spiro[2.5]oct-4-yl]-2-oxo-ethyl}-benzonitrile], for which the EC50 was below 100 nM in experiment [1] (HTRF assay), below 100 nM in experiment [2] (HTRF assay), 100 to 500 nM in experiment [3] (HTRF assay) and below 100 nM in experiment [4] (HTRF assay).
With `O=C(c1ccc(OC(F)(F)F)cc1)N1CCN(c2ccnc3[nH]ccc23)CC12CC2` [Example 238, [7-(1H-Pyrrolo[2,3-b]pyridin-4-yl)-4,7-diaza-spiro[2.5]oct-4-yl]-(4-trifluoromethoxy-phenyl)-methanone], the EC50 in experiment [1] (HTRF assay) was 100 to 500 nM; in experiment [2] (HTRF assay), below 100 nM; in experiment [3] (HTRF assay) it was above 500 nM; in experiment [4] (HTRF assay), above 500 nM.
With `COc1cc(C(=O)N2[C@@H]3CC[C@H]2CN(c2ncnc4[nH]ccc24)C3)cs1` [Example 108, (5-Methoxy-thiophen-3-yl)-[3-(7H-pyrrolo[2,3-d]pyrimidin-4-yl)-3,8-diaza-bicyclo[3.2.1]oct-8-yl]-methanone], the EC50 in experiment [1] is below 100 nM; in experiment [2], below 100 nM; in experiment [3], above 500 nM; in experiment [4], below 100 nM.
Turning to `N#CCOc1ccc(C(=O)N2[C@@H]3CC[C@@H]2CN(c2ncnc4[nH]ccc24)C3)cc1` [Example 342, {4-[3-(7H-Pyrrolo[2,3-d]pyrimidin-4-yl)-3,8-diaza-bicyclo[3.2.1]octane-8-carbonyl]-phenoxy}-acetonitrile], the EC50 in experiment [1] (HTRF assay) was below 100 nM; in experiment [2] (HTRF assay), below 100 nM; in experiment [3] (HTRF assay) it was above 500 nM; in experiment [4] (HTRF assay), 100 to 500 nM.
On to `O=C(C1CCOC1)N1C2CCC1CN(c1ncnc3[nH]ccc13)C2` (centres unmarked) [Example 144, [3-(7H-Pyrrolo[2,3-d]pyrimidin-4-yl)-3,8-diaza-bicyclo[3.2.1]oct-8-yl]-(tetrahydro-furan-3-yl)-methanone], for which the concentration giving a half-maximal response (EC50) in experiment [1] was below 100 nM; in experiment [2] it was 100 to 500 nM; in experiment [3] it was above 500 nM; in experiment [4], above 500 nM.
Take `NS(=O)(=O)c1ccc(C(=O)N2CCN(c3ncnc4[nH]ccc34)CC23CC3)cc1` [Example 369, 4-[7-(7H-Pyrrolo[2,3-d]pyrimidin-4-yl)-4,7-diaza-spiro[2.5]octane-4-carbonyl]-benzenesulfonamide]: the concentration giving a half-maximal response (EC50) in experiment [1] (HTRF assay), in experiment [2] (HTRF assay), in experiment [3] (HTRF assay) and in experiment [4] (HTRF assay) was below 100 nM each time.
For `CC1CN(C(=O)c2ccc(C#N)cc2)C2(CC2)CN1c1ncnc2[nH]ccc12` (centres unmarked) [Example 148, 4-[6-Methyl-7-(7H-pyrrolo[2,3-d]pyrimidin-4-yl)-4,7-diaza-spiro[2.5]octane-4-carbonyl]-benzonitrile], the concentration for a half-maximal effect (EC50) in experiment [1] is below 100 nM; in experiment [2], below 100 nM; in experiment [3], above 500 nM; in experiment [4], 100 to 500 nM.
`O=C(c1ccc(C(F)(F)F)cc1)N1CCN(c2ncnc3[nH]ccc23)CC12CC2` [Example 48, [7-(7H-Pyrrolo[2,3-d]pyrimidin-4-yl)-4,7-diaza-spiro[2.5]oct-4-yl]-(4-trifluoromethylphenyl)methanone]: the EC50 in experiment [1] was below 100 nM; in experiment [2], below 100 nM; in experiment [3], above 500 nM; in experiment [4], 100 to 500 nM.
Consider `O=C1c2ccccc2CC1C(=O)N1C2CCC1CN(c1ncnc3[nH]ccc13)C2` (centres unmarked) [Example 133, 2-[3-(7H-Pyrrolo[2,3-d]pyrimidin-4-yl)-3,8-diaza-bicyclo[3.2.1]octane-8-carbonyl]-indan-1-one], for which the EC50 in experiment [1] was 100 to 500 nM; in experiment [2], above 500 nM; in experiment [3], above 500 nM; in experiment [4] it was above 500 nM.
Consider `O=C(c1cccc(-c2ccccc2)c1)N1CCN(c2ncnc3[nH]ccc23)CC12CC2` [Example 6, Biphenyl-3-yl-[7-(7H-pyrrolo[2,3-d]pyrimidin-4-yl)-4,7-diazaspiro[2.5]oct-4-yl]methanone], for which the EC50 is below 100 nM in experiment [1], below 100 nM in experiment [2], 100 to 500 nM in experiment [3] and 100 to 500 nM in experiment [4].
